Assay results as given in patent US11793849B2, “Method of Chinese herbal medicine extract used for treating multiple diseases caused by drug resistant bacteria infection” (priority 2016, dated 2023).
Like-named read-outs stand apart in the source and are kept apart here.

Test system: MDRAB
Test: Checkerboard assay (combined-use MIC, FIC)
Type: cell-based, Acinetobacter baumannii
Conditions: for FIC, all strains / MIC50 of the antibiotic after combined use / MIC90 of the antibiotic after combined use / reduction of the antibiotic's MIC50 vs single use / reduction of the antibiotic's MIC90 vs single use / share of strains with FIC ≤ 0.5: 20 MDRABs; for MIC: Acinetobacter baumannii, read-out: single-use MIC
Procedure: Test methods of the sensibilization effects of the test product to similar antibiotics: it is operated by referring to a checkerboard assay recommended by NCCLS.
The checkerboard assay is performed in a 96-pore sterile culture plate.
Calculation of a Fractional Inhibitory Concentration (FIC): FIC=S20b combined-use MIC/S20b single-use MIC+antibiotic combined-use MIC/antibiotic single-use MIC. By calculating the FIC, the combined antibacterial interaction between the EA and the antibiotic is evaluated, with synergistic effect for FIC≤0.5, additive effect for 0.5<FIC≤1, indifferent effect for 1<FIC≤2 and antagonistic effect for FIC>2. According to a sterile growth pore, the optimum concentration ratio between the EA and the antibiotic is founded out. At last, the effect of the EA to strengthen the efficacy of the antibiotic is evaluated.

[1] = antibiotic with 60% ethanol extract
[2] = antibiotic with 95% ethanol extract
[3] = antibiotic with EA (10% ethanol extract)
[4] = antibiotic with EA (water extract)

- MIC50 of the antibiotic after combined use [1]: 8 µg/mL
- MIC90 of the antibiotic after combined use [1]: 16 µg/mL
- reduction of the antibiotic's MIC50 vs single use [1]: 75%
- reduction of the antibiotic's MIC90 vs single use [1]: 50%
- MIC50 of the antibiotic after combined use [2]: 8 µg/mL
- MIC90 of the antibiotic after combined use [2]: 16 µg/mL
- reduction of the antibiotic's MIC50 vs single use [2]: 75%
- reduction of the antibiotic's MIC90 vs single use [2]: 50%
- MIC50 of the antibiotic after combined use [3]: 8 µg/mL
- MIC90 of the antibiotic after combined use [3]: 16 µg/mL
- reduction of the antibiotic's MIC50 vs single use [3]: 75%
- reduction of the antibiotic's MIC90 vs single use [3]: 50%
- MIC50 of the antibiotic after combined use [4]: 8 µg/mL
- MIC90 of the antibiotic after combined use [4]: 16 µg/mL
- reduction of the antibiotic's MIC50 vs single use [4]: 75%
- reduction of the antibiotic's MIC90 vs single use [4]: 50%
- MIC (strain A1, EA=60% ethanol extract): 1 µg/mL
- MIC (strain A1, EA=95% ethanol extract): 1 µg/mL
- MIC (strain A2, EA=60% ethanol extract): 32 µg/mL
- MIC (strain A2, EA=95% ethanol extract): 32 µg/mL
- MIC (strain A3, EA=60% ethanol extract): 32 µg/mL
- MIC (strain A3, EA=95% ethanol extract): 32 µg/mL
- MIC (strain A4, EA=60% ethanol extract): 8 µg/mL
- MIC (strain A4, EA=95% ethanol extract): 8 µg/mL
- MIC (strain A5 (printed AS in tables A43, A45), EA=95% ethanol extract): 32 µg/mL
- MIC (strain A5, EA=60% ethanol extract): 32 µg/mL
- MIC (strain A6, EA=60% ethanol extract): 32 µg/mL
- MIC (strain A6, EA=95% ethanol extract): 32 µg/mL
- MIC (strain A7, EA=60% ethanol extract): 32 µg/mL
- MIC (strain A7, EA=95% ethanol extract): 32 µg/mL
- MIC (strain A8, EA=60% ethanol extract): 32 µg/mL
- MIC (strain A8, EA=95% ethanol extract): 32 µg/mL
- MIC (strain A9, EA=60% ethanol extract): 32 µg/mL
- MIC (strain A9, EA=95% ethanol extract): 32 µg/mL
- MIC (strain A10, EA=60% ethanol extract): 16 µg/mL
- MIC (strain A10, EA=95% ethanol extract): 16 µg/mL
- MIC (strain A11, EA=60% ethanol extract): 32 µg/mL
- MIC (strain A11, EA=95% ethanol extract): 32 µg/mL
- MIC (strain A12, EA=60% ethanol extract): 32 µg/mL
- MIC (strain A12, EA=95% ethanol extract): 32 µg/mL
- MIC (strain A13, EA=60% ethanol extract): 32 µg/mL
- MIC (strain A13, EA=95% ethanol extract): 32 µg/mL
- MIC (strain A14, EA=60% ethanol extract): 32 µg/mL
- MIC (strain A14, EA=95% ethanol extract): 32 µg/mL
- MIC (strain A15, EA=60% ethanol extract): 32 µg/mL
- MIC (strain A15, EA=95% ethanol extract): 32 µg/mL
- MIC (strain A16, EA=60% ethanol extract): 32 µg/mL
- MIC (strain A16, EA=95% ethanol extract): 32 µg/mL
- MIC (strain A17, EA=60% ethanol extract): 16 µg/mL
- MIC (strain A17, EA=95% ethanol extract): 16 µg/mL
- MIC (strain A18, EA=60% ethanol extract): 32 µg/mL
- MIC (strain A18, EA=95% ethanol extract): 32 µg/mL
- MIC (strain A19, EA=60% ethanol extract): 32 µg/mL
- MIC (strain A19, EA=95% ethanol extract): 32 µg/mL
- MIC (strain A20, EA=60% ethanol extract): 32 µg/mL
- MIC (strain A20, EA=95% ethanol extract): 32 µg/mL
- combined-use MIC (strain A1, EA (10% ethanol extract) with IMP): 0.5 µg/mL
- combined-use MIC (strain A1, EA (60% ethanol extract) + IMP combined): 0.5 µg/mL
- combined-use MIC (strain A1, EA (95% ethanol extract) + IMP combined): 0.5 µg/mL
- combined-use MIC (strain A1, EA (water extract) with IMP): 0.5 µg/mL
- combined-use MIC (strain A2, EA (10% ethanol extract) with IMP): 8 µg/mL
- combined-use MIC (strain A2, EA (60% ethanol extract) + IMP combined): 8 µg/mL
- combined-use MIC (strain A2, EA (95% ethanol extract) + IMP combined): 8 µg/mL
- combined-use MIC (strain A2, EA (water extract) with IMP): 16 µg/mL
- combined-use MIC (strain A3, EA (10% ethanol extract) with IMP): 8 µg/mL
- combined-use MIC (strain A3, EA (60% ethanol extract) + IMP combined): 8 µg/mL
- combined-use MIC (strain A3, EA (95% ethanol extract) + IMP combined): 8 µg/mL
- combined-use MIC (strain A3, EA (water extract) with IMP): 16 µg/mL
- combined-use MIC (strain A4, EA (10% ethanol extract) with IMP): 8 µg/mL
- combined-use MIC (strain A4, EA (60% ethanol extract) + IMP combined): 0.5 µg/mL
- combined-use MIC (strain A4, EA (95% ethanol extract) + IMP combined): 0.5 µg/mL
- combined-use MIC (strain A4, EA (water extract) with IMP): 1 µg/mL
- combined-use MIC (strain A5, EA (10% ethanol extract) with IMP): 8 µg/mL
- combined-use MIC (strain A5, EA (60% ethanol extract) + IMP combined): 8 µg/mL
- combined-use MIC (strain A5, EA (water extract) with IMP): 16 µg/mL
- combined-use MIC (strain A6, EA (10% ethanol extract) with IMP): 4 µg/mL
- combined-use MIC (strain A6, EA (60% ethanol extract) + IMP combined): 16 µg/mL
- combined-use MIC (strain A6, EA (95% ethanol extract) + IMP combined): 16 µg/mL
- combined-use MIC (strain A6, EA (water extract) with IMP): 16 µg/mL
- combined-use MIC (strain A7, EA (10% ethanol extract) with IMP): 8 µg/mL
- combined-use MIC (strain A7, EA (60% ethanol extract) + IMP combined): 16 µg/mL
- combined-use MIC (strain A7, EA (95% ethanol extract) + IMP combined): 16 µg/mL
- combined-use MIC (strain A7, EA (water extract) with IMP): 16 µg/mL
- combined-use MIC (strain A8, EA (10% ethanol extract) with IMP): 16 µg/mL
- combined-use MIC (strain A8, EA (60% ethanol extract) + IMP combined): 16 µg/mL
- combined-use MIC (strain A8, EA (95% ethanol extract) + IMP combined): 16 µg/mL
- combined-use MIC (strain A8, EA (water extract) with IMP): 16 µg/mL
- combined-use MIC (strain A9, EA (10% ethanol extract) with IMP): 8 µg/mL
- combined-use MIC (strain A9, EA (60% ethanol extract) + IMP combined): 4 µg/mL
- combined-use MIC (strain A9, EA (95% ethanol extract) + IMP combined): 4 µg/mL
- combined-use MIC (strain A9, EA (water extract) with IMP): 16 µg/mL
- combined-use MIC (strain A10, EA (10% ethanol extract) with IMP): 8 µg/mL
- combined-use MIC (strain A10, EA (60% ethanol extract) + IMP combined): 8 µg/mL
- combined-use MIC (strain A10, EA (95% ethanol extract) + IMP combined): 8 µg/mL
- combined-use MIC (strain A10, EA (water extract) with IMP): 8 µg/mL
- combined-use MIC (strain A11, EA (10% ethanol extract) with IMP): 8 µg/mL
- combined-use MIC (strain A11, EA (60% ethanol extract) + IMP combined): 4 µg/mL
- combined-use MIC (strain A11, EA (95% ethanol extract) + IMP combined): 4 µg/mL
- combined-use MIC (strain A11, EA (water extract) with IMP): 8 µg/mL
- combined-use MIC (strain A12, EA (10% ethanol extract) with IMP): 8 µg/mL
- combined-use MIC (strain A12, EA (60% ethanol extract) + IMP combined): 8 µg/mL
- combined-use MIC (strain A12, EA (95% ethanol extract) + IMP combined): 8 µg/mL
- combined-use MIC (strain A12, EA (water extract) with IMP): 16 µg/mL
- combined-use MIC (strain A13, EA (10% ethanol extract) with IMP): 8 µg/mL
- combined-use MIC (strain A13, EA (60% ethanol extract) + IMP combined): 8 µg/mL
- combined-use MIC (strain A13, EA (95% ethanol extract) + IMP combined): 8 µg/mL
- combined-use MIC (strain A13, EA (water extract) with IMP): 16 µg/mL
- combined-use MIC (strain A14, EA (10% ethanol extract) with IMP): 16 µg/mL
- combined-use MIC (strain A14, EA (60% ethanol extract) + IMP combined): 4 µg/mL
- combined-use MIC (strain A14, EA (95% ethanol extract) + IMP combined): 8 µg/mL
- combined-use MIC (strain A14, EA (water extract) with IMP): 4 µg/mL
- combined-use MIC (strain A15, EA (10% ethanol extract) with IMP): 8 µg/mL
- combined-use MIC (strain A15, EA (60% ethanol extract) + IMP combined): 4 µg/mL
- combined-use MIC (strain A15, EA (95% ethanol extract) + IMP combined): 8 µg/mL
- combined-use MIC (strain A15, EA (water extract) with IMP): 4 µg/mL
- combined-use MIC (strain A16, EA (10% ethanol extract) with IMP): 8 µg/mL
- combined-use MIC (strain A16, EA (60% ethanol extract) + IMP combined): 8 µg/mL
- combined-use MIC (strain A16, EA (95% ethanol extract) + IMP combined): 8 µg/mL
- combined-use MIC (strain A16, EA (water extract) with IMP): 8 µg/mL
- combined-use MIC (strain A17, EA (10% ethanol extract) with IMP): 4 µg/mL
- combined-use MIC (strain A17, EA (60% ethanol extract) + IMP combined): 2 µg/mL
- combined-use MIC (strain A17, EA (95% ethanol extract) + IMP combined): 2 µg/mL
- combined-use MIC (strain A17, EA (water extract) with IMP): 2 µg/mL
- combined-use MIC (strain A18, EA (10% ethanol extract) with IMP): 16 µg/mL
- combined-use MIC (strain A18, EA (60% ethanol extract) + IMP combined): 8 µg/mL
- combined-use MIC (strain A18, EA (95% ethanol extract) + IMP combined): 8 µg/mL
- combined-use MIC (strain A18, EA (water extract) with IMP): 8 µg/mL
- combined-use MIC (strain A19, EA (10% ethanol extract) with IMP): 8 µg/mL
- combined-use MIC (strain A19, EA (60% ethanol extract) + IMP combined): 8 µg/mL
- combined-use MIC (strain A19, EA (95% ethanol extract) + IMP combined): 8 µg/mL
- combined-use MIC (strain A19, EA (water extract) with IMP): 8 µg/mL
- combined-use MIC (strain A20, EA (10% ethanol extract) with IMP): 8 µg/mL
- combined-use MIC (strain A20, EA (60% ethanol extract) + IMP combined): 8 µg/mL
- combined-use MIC (strain A20, EA (95% ethanol extract) + IMP combined): 8 µg/mL
- combined-use MIC (strain A20, EA (water extract) with IMP): 8 µg/mL
- combined-use MIC (strain AS, EA (95% ethanol extract) + IMP combined): 8 µg/mL
Compound: C[C@@H](O)[C@H]1C(=O)N2C(C(=O)O)=C(SCCN=CN)C[C@H]12 [IMP, imipenem]
- FIC, all strains [1]: ≤ 1
- share of strains with FIC ≤ 0.5 [1]: 70%
- FIC, all strains [2]: ≤ 1
- share of strains with FIC ≤ 0.5 [2]: 55%
- FIC, all strains [3]: ≤ 1
- share of strains with FIC ≤ 0.5 [3]: 45%
- FIC, all strains [4]: ≤ 1
- share of strains with FIC ≤ 0.5 [4]: 35%
